Experiment [1] deals with Mus musculus. As to the kind of experiment: Antidepressant activity in ICR mouse model of chronic unpredictable mild stress assessed as reduction in sphingomyelin level in cerebral cortex at 12 mg/kg, ip administered once a day for 1 week post 8 week of chronic unpredictable mild stress and measured after 1 week by ELISA. It is filed as functional, organism-based. Conditions: time 2.0 weeks.

Experiment [2] deals with Mus musculus. Briefly: In vivo inhibition of ASM in ICR mouse model of chronic unpredictable mild stress assessed as increase in 5-HT uptake in hippocampus at 12 mg/kg, ip administered once a day for 1 week post 8 week of chronic unpredictable mild stress and measured after 1 week by ELISA. It is filed as functional, organism-based. Conditions: time 2.0 weeks.
Experiment [3] concerns Mus musculus. As to the kind of experiment: Antineuroinflammatory activity in ICR mouse model of chronic unpredictable mild stress assessed as reduction in IL-1beta level in serum at 12 mg/kg, ip administered once a day for 1 week post 8 week of chronic unpredictable mild stress and measured after 1 week by ELISA. It is filed as functional, organism-based. Conditions: time 2.0 weeks.

Experiment [4] has as its system Mus musculus. Briefly: Antineuroinflammatory activity in ICR mouse model of chronic unpredictable mild stress assessed as reduction in TNFalpha level in serum at 12 mg/kg, ip administered once a day for 1 week post 8 week of chronic unpredictable mild stress and measured after 1 week by ELISA. It is filed as functional, organism-based. Conditions: time 2.0 weeks.

Experiment [5] concerns Mus musculus. Briefly: Antidepressant activity in ICR mouse model of chronic unpredictable mild stress assessed as reduction in oxidative stress by measuring reduction in MDA level in cerebral cortex at 12 mg/kg, ip administered once a day for 1 week post 8 week of chronic unpredictable mild stress and measured after 1 week by ELISA. It is filed as functional, organism-based. The conditions noted are these: time 2.0 weeks.

The test system of experiment [6] is Mus musculus. Briefly: Antidepressant activity in ICR mouse model of chronic unpredictable mild stress assessed as reduction in sphingosine-1-phosphate level in cerebral cortex at 12 mg/kg, ip administered once a day for 1 week post 8 week of chronic unpredictable mild stress and measured after 1 week by ELISA. It is filed as functional, organism-based. The conditions noted are these: time 2.0 weeks.

For experiment [7], the system named is Mus musculus. As to the kind of experiment: Antineuroinflammatory activity in ICR mouse model of chronic unpredictable mild stress assessed as reduction in IL-6 level in serum at 12 mg/kg, ip administered once a day for 1 week post 8 week of chronic unpredictable mild stress and measured after 1 week by ELISA. It is filed as functional, organism-based. The conditions noted are these: time 2.0 weeks.

Experiment [8] relates to Mus musculus. Briefly: Antidepressant activity in ICR mouse model of chronic unpredictable mild stress assessed as downregulation of neuronal apoptosis by measuring increase in BDNF protein level in hippocampus at 12 mg/kg, ip administered once a day for 1 week post 8 week of chronic unpredictable mild stress and measured after 1 week by Western blot analysis. It is filed as functional, organism-based. Conditions: time 2.0 weeks.

Experiment [9] has as its system Mus musculus. Briefly: Antidepressant activity in ICR mouse model of chronic unpredictable mild stress assessed as reduction in sphingosine-1-phosphate level in hippocampus at 12 mg/kg, ip administered once a day for 1 week post 8 week of chronic unpredictable mild stress and measured after 1 week by ELISA. It is filed as functional, organism-based. The conditions noted are these: time 2.0 weeks.

The target of experiment [10] is T1, Sphingomyelin phosphodiesterase (Homo sapiens, UniProt P17405).
T1 sequence (P17405 whole entry): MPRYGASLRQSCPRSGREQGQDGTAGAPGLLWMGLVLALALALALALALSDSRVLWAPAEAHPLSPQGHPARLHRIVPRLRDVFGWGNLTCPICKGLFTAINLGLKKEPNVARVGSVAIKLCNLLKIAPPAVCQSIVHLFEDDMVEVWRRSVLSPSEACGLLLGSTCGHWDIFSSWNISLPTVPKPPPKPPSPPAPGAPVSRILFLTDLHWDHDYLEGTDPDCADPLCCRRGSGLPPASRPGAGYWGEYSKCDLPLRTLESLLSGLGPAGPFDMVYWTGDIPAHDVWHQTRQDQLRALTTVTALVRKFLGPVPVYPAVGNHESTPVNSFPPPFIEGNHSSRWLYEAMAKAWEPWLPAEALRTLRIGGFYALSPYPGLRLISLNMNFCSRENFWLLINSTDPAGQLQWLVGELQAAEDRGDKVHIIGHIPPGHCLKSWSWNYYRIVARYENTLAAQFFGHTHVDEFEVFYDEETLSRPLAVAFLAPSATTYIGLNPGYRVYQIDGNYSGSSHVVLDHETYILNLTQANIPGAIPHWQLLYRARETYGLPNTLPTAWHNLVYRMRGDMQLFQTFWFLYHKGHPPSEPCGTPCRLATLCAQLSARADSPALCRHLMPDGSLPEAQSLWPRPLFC
As to the kind of experiment: Inhibition of human recombinant ASM (His62 to Pro628 residues) using HMU-PC as substrate incubated for 2 hrs by fluorescence based analysis.

Among the data in ChEMBL document CHEMBL5512696, “Discovery of a Novel ASM Direct Inhibitor with a 1,5-Diphenyl-pyrazole Scaffold and Its Antidepressant Mechanism of Action” (J Med Chem, 2024) are Activity, inhibition and IC50 values, retold here.

Activity calls are given as the source filed them. The rule behind the calls is not given here.

For orientation: IC50 means the point on the concentration scale where inhibition reaches its midpoint.

For the compound `CNCCC(Oc1ccc(C(F)(F)F)cc1)c1ccccc1` (stereo not given), the outcome in the experiment with Mus musculus [1], in the experiment on Mus musculus [3], in the experiment with Mus musculus [4], in the experiment on Mus musculus [5], in the experiment with Mus musculus [6] and in the experiment with Mus musculus [7] was Active. Moreover, the result in the experiment on Mus musculus [8] and in the experiment on Mus musculus [9] was Active. Also, the inhibition entry in the experiment on Mus musculus [2] was “Active”.
Turning to `CCCCCCCCCCOc1cc(C(=O)NO)ccc1OC`, the IC50 in experiment [10] is 1.2 µM.
